Measured values reported in US7582447B2, “DNA encoding a testicular carnitine transporter” (Human Cell Systems, Inc., priority 2001, dated 2009).

T1: CT2 (Homo sapiens, UniProt Q86VW1)
T1 construct: a cRNA (RNA complementary to cDNA) was prepared in vitro from a plasmid containing the CT2cDNA; expressed in transfected cells; host or cells: Xenopus laevis oocytes injected with CT2 cRNA
T1 sequence (Q86VW1 1-543 isoform Q86VW1-2): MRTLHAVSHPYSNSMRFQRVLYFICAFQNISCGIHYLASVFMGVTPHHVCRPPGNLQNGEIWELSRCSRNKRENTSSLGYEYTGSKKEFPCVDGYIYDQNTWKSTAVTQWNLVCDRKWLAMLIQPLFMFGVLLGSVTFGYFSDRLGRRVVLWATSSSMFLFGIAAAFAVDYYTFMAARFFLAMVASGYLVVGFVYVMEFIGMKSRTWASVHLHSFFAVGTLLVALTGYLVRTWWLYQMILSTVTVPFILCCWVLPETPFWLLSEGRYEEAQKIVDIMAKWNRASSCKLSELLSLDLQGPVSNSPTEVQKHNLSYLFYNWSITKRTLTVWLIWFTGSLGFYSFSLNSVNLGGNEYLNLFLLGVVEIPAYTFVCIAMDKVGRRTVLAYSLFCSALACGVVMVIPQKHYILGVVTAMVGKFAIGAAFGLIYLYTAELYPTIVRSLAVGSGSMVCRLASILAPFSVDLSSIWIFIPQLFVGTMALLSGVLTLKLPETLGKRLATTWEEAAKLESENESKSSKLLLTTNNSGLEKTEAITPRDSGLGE

B1: CT2 (Homo sapiens) (protein)
chain: T1 sequence (Q86VW1 1-543 isoform Q86VW1-2)
notes: a cRNA (RNA complementary to cDNA) was prepared in vitro from a plasmid containing the CT2cDNA; expressed in transfected cells; host or cells: Xenopus laevis oocytes injected with CT2 cRNA

How the values were obtained:
Format in all cases: cell-based
[1] = target: T1, CT2; assay: inhibition experiment: ^3H-carnitine uptake by oocytes injected with CT2 cRNA in the presence of unlabelled compounds; conditions: for inhibition of ^3H-carnitine transport by CT2: 50 nM ^3H-carnitine, 5 μM or 50 μM unlabelled compound, FIG. 4
Experimental: (§1) The thus-obtained cRNA was injected into oocytes of a platanna in accordance with the already reported method (Sekine, T. et al., J. Biol. Chem., Vol. 272, pp. 18526-18529, 1997), and an uptake experiment by radioactive labeled L-carnitine was conducted on the oocytes.
(3) An influence to be exerted by D-Carnitine, which is an isomer of L-carnitine, on the L-carnitine transport by CT2 was studied.
(6) In order to study further on the substrate selectivity of CT2, in the ^3H-carnitine uptake experiment system by oocytes into which CT2cRNA was injected, various carnitine analogs were added to the system and its influences were investigated (inhibition experiment).
The ^3H-carnitine uptake experiment was performed in accordance with the above-described method using oocytes into which CT2cRNA was injected. 50 nM ^3H-carnitine uptake was measured in the presence or absence of 5 μM or 50 μM of various compounds (unlabelled).

[2] = target: T1, CT2; assay: uptake experiment of radioactive labeled substrates by oocytes injected with human CT2 cRNA; conditions: platanna oocytes injected with CT2 cRNA; FIG. 1A
Experimental: It is possible to confirm the ability to transport (uptake) carnitine into a cell by expressing a cRNA prepared from the obtained CT2cDNA by introducing the cRNA into an oocyte and measuring a substrate uptake into the cell employing an ordinary uptake experiment (Sekine, T et al., Biochem. Biophis. Res. Commun., Vol. 251, pp. 586-591, 1998) wherein carnitine is used as a substrate.
Next, a cRNA (RNA complementary to cDNA) was prepared in vitro from a plasmid containing the CT2cDNA by using a T7RNA polymerase (see Sekine, T., et al., J. Biol. Chem., Vol. 272, pp. 18526-18529, 1997).
as §1
A concentration dependence of the carnitine transport by CT2 was studied through an investigation of changes in amounts of uptake of various concentration carnitines by CT2. The uptake experiment of radioactive labeled carnitines was performed by using oocytes into which the CT2cRNA was injected and in accordance with the above-described method.

[3] = substrate: C[N+](C)(C)C[C@H](O)CC(=O)[O-]; assay: as above; conditions: other: Michaelis-Menten kinetics, oocytes injected with CT2cRNA; FIG. 2A

| Molecule | inhibition of ^3H-carnitine transport by CT2 [1] | uptake of radioactive labeled substrate by oocytes which expressed the CT2 [2] | other results |
| --- | --- | --- | --- |
| CC(=O)OC(CC(=O)[O-])C[N+](C)(C)C (racemic) [acetyl DL-carnitine] | significantly inhibited | – | – |
| C[N+](C)(C)C[C@@H](O)CC(=O)[O-] [D-carnitine] | significantly inhibited | – | inhibition of the L-carnitine transport by CT2 (concentration dependence) ([1]; oocytes injected with CT2 cRNA, FIG. 2B): inhibited the L-carnitine transport by CT2 in a concentration dependent manner; Ki ([1]; oocytes injected with CT2 cRNA, FIG. 2B, read-out: Ki value, inhibition of the L-carnitine transport by CT2): ~30.1 µM |
| C[N+](C)(C)C[C@H](O)CC(=O)[O-] [L-carnitine] | – | exhibit ^3H-L-carnitine uptake | – |
| CC(=O)O[C@H](CC(=O)[O-])C[N+](C)(C)C [acetyl L-carnitine] | significantly inhibited | – | – |
| C[N+](C)(C)CC(=O)O [betaine] | significantly inhibited | – | – |
| CCCCCCCC(=O)O[C@H](CC(=O)[O-])C[N+](C)(C)C [octanoyl L-carnitine] | significantly inhibited | – | – |
| Nc1ccc(C(=O)NCC(=O)O)cc1 [paraamino hippuric acid] | did not show inhibition effect | not observed | – |
| CC[N+](CC)(CC)CC [tetraethylammnonium, tetraethyl ammonium] | did not show inhibition effect | not observed | – |
| B1 | – | – | Km [3]: 20.3 µM |
